Reference: patent US8486647B2, “Neuropeptide release assay for sodium channels” (priority 2010, dated 2013)
Where “and” joins values, the source holds several entries; their conditions need not be identical. Identical values can stand only once.

Tests used:
Scn9a^3.1/3.1 DRG = test: CGRP release assay, Scn9a^3.1/3.1 DRG; type: cell-based, mouse
Scn9a^+/+ DRG = test: CGRP release assay, Scn9a^+/+ DRG; type: cell-based, mouse

Row | Compound | inflammatory mix-induced release of CGRP (Scn9a^3.1/3.1 DRG) | inflammatory mix-induced release of CGRP (Scn9a^+/+ DRG) | CGRP released (Scn9a^+/+ DRG)
1 | CCN(CC)CC(=O)Nc1c(C)cccc1C [Lidocaine] | notably enhanced |  | 
2 | NC1=N[C@H](O)[C@H]2[C@H]3O[C@]4(O)O[C@@H]([C@@H](O)[C@@]2(N1)[C@@H]4O)[C@]3(O)CO [TTX, Tetrodotoxin] |  | notably enhanced | 
3 | ProTx-II [Pro-TXII] |  | notably enhanced | 186 ± 40 pg/mL and 126 ± 25 pg/mL
